Data from ChEMBL document CHEMBL2429737, “Synthesis and study of benzothiazole conjugates in the control of cell proliferation by modulating Ras/MEK/ERK-dependent pathway in MCF-7 cells” (Bioorg Med Chem Lett, 2013).
The source made the active and inactive calls. No cut-off for these calls is given here.

What was measured:
[1] = Cytotoxicity against HEK cells at 0.25 to 64 ug after 72 hrs by MTT assay; format: cell-based; conditions: human, hek293, 72 h
MCF7 [2] = experiment: Selectivity index, ratio of IC50 for human MCF10A cells to IC50 for human MCF7 cells; format: functional
MCF7 [3] = experiment: Cytotoxicity against human MCF7 cells after 72 hrs by MTT assay; format: functional, cell-based; conditions: MCF7, 72 h
MDA-MB-231 [4] = experiment: Cytotoxicity against human MDA-MB-231 cells after 72 hrs by MTT assay; format: functional, cell-based; conditions: MDA-MB-231, 72 h
MDA-MB-231 [5] = experiment: Cytotoxicity against human MDA-MB-231 cells after 48 hrs by SRB assay; format: functional; conditions: MDA-MB-231, 48 h
MCF7 [6] = experiment: Cytotoxicity against human MCF7 cells after 48 hrs by SRB assay; format: functional; conditions: MCF7, 48 h
MCF-10A [7] = experiment: Cytotoxicity against human MCF10A cells after 72 hrs by MTT assay; format: cell-based
MCF-10A [8] = experiment: Selectivity index, ratio of IC50 for human MCF10A cells to IC50 for human MDA-MB-231 cells; format: functional
MCF7 [9] = experiment: Cytotoxicity against human MCF7 cells at 4 uM after 72 hrs by MTT assay; format: functional
MCF7 [10] = experiment: Down regulation of VEGF protein expression in human MCF7 cells at 2 to 4 uM after 24 hrs by Western blotting analysis; format: functional, cell-based
MCF7 [11] = experiment: Down regulation of Ras protein expression in human MCF7 cells at 2 to 4 uM after 24 hrs by Western blotting analysis; format: functional, cell-based
MCF7 [12] = experiment: Induction of apoptosis in human MCF7 cells assessed as increase in caspase-9 activity at 2 uM after 24 hrs by fluorescence assay
[13] = molecular target: Mitogen-activated protein kinase; ERK1/ERK2 (Homo sapiens) (UniProt P27361+P28482); experiment: Inhibition of ERK1/2 phosphorylation in human MCF7 cells at 2 to 4 uM after 24 hrs by Western blotting analysis; format: cell-based
MCF7 [14] = experiment: Down regulation of integrin alphaVbeta3 protein expression in human MCF7 cells at 2 to 4 uM after 24 hrs by Western blotting analysis
MCF7 [15] = experiment: Down regulation of MEK1 protein expression in human MCF7 cells at 2 to 4 uM after 24 hrs by Western blotting analysis; format: functional, cell-based

Mitogen-activated protein kinase; ERK1/ERK2 (Homo sapiens), sequence (P27361 whole entry, looked up): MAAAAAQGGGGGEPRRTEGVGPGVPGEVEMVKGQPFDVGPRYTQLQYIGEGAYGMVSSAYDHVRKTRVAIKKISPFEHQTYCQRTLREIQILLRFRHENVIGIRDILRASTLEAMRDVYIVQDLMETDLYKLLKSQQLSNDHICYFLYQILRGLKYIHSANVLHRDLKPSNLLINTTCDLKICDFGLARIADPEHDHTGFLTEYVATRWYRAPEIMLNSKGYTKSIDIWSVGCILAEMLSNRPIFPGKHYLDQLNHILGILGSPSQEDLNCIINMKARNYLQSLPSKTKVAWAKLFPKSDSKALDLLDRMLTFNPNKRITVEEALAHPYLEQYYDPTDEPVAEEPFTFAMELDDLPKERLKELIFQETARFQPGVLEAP
Mitogen-activated protein kinase; ERK1/ERK2 (Homo sapiens), sequence (P28482 whole entry, looked up): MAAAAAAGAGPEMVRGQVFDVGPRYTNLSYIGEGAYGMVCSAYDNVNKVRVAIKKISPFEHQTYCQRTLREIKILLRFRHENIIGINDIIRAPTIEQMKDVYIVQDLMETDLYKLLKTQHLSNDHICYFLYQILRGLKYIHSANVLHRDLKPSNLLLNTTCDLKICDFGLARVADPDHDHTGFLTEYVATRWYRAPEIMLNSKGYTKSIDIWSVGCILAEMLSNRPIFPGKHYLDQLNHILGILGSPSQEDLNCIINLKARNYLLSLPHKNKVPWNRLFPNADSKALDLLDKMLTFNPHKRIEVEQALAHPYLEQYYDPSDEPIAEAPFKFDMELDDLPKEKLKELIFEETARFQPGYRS

Row | inhibition [13] | SMILES | Activity [1] | Ratio IC50 (MCF7 [2]) | IC50 (MCF7 [3]) [µM] | IC50 (MDA-MB-231 [4]) [µM] | GI50 (MDA-MB-231 [5]) [µM] | GI50 (MCF7 [6]) [µM] | IC50 (MCF-10A [7]) [µM] | Ratio IC50 (MCF-10A [8]) | Activity (MCF7 [9]) [%] | Activity (MCF7 [10]) | Activity (MCF7 [11]) | Activity (MCF7 [12]) | Activity (MCF7 [14]) | Activity (MCF7 [15])
1 | – | Cc1ccc(-c2ccc([N+](=O)[O-])cc2)n1-c1ccc(-c2nc3ccccc3s2)cc1 | Non-toxic | 12.47 | 3.11 | 12.1 | 3.9 | 2.54 | 38.8 | 3.2 | – | – | – | – | – | –
2 | – | COc1ccc(-c2ccc(C)n2-c2ccc(-c3nc4ccc(F)cc4s3)cc2)cc1 | Non-toxic | 14.85 | 2.54 | 19 | 3.07 | 2.12 | 37.8 | 1.98 | – | – | – | – | – | –
3 | – | COc1ccc(-c2ccc(C)n2-c2ccc(-c3nc4cc(OC)c(OC)c(OC)c4s3)cc2)cc1 | Non-toxic | 19.945 | 2.2 | 12.5 | 2.24 | 1.23 | 43.9 | 3.5 | 50 | – | – | – | – | –
4 | – | Cc1ccc(-c2ccc(C)n2-c2ccc(-c3nc4ccccc4s3)cc2)cc1 | Non-toxic | 9.1 | 3.1 | 17.8 | 4.4 | 2.5 | 30.6 | 1.71 | – | – | – | – | – | –
5 | – | COc1ccc2nc(-c3ccc(-n4c(C)ccc4-c4ccc(C)cc4)cc3)sc2c1 | Non-toxic | 11.92 | 2.85 | 20.5 | 4.01 | 2.57 | 34 | 1.65 | – | – | – | – | – | –
6 | – | Cc1ccc(-c2ccc(F)cc2)n1-c1ccc(-c2nc3ccccc3s2)cc1 | Non-toxic | 12.57 | 3.18 | 11.8 | 4.34 | 2.62 | 40 | 3.4 | – | – | – | – | – | –
7 | Active | COc1cc([C@@H]2c3cc4c(cc3[C@@H](O[C@@H]3O[C@@H]5CO[C@@H](C)O[C@H]5[C@H](O)[C@H]3O)[C@H]3COC(=O)[C@H]23)OCO4)cc(OC)c1O [ETOPOSIDE] | – | 30.21 | 1.2 | 1.5 | 1.67 | 0.87 | 36.3 | 24.17 | – | Active | Active | Active | Active | Active
8 | – | COc1ccc2nc(-c3ccc(-n4c(C)ccc4-c4ccc([N+](=O)[O-])cc4)cc3)sc2c1 | Non-toxic | 25.3 | – | 12.7 | 4.56 | 3.17 | 34.9 | 2.74 | – | – | – | – | – | –
9 | – | COc1ccc2nc(-c3ccc(-n4c(C)ccc4-c4ccc(F)cc4)cc3)sc2c1 | Non-toxic | 13.67 | 2.8 | 13.8 | 4.06 | 2.48 | 38.3 | 2.77 | – | – | – | – | – | –
10 | – | COc1cc(-c2ccc(C)n2-c2ccc(-c3nc4ccccc4s3)cc2)cc(OC)c1OC | Non-toxic | 8.87 | 4.37 | 16 | 3.45 | 2.34 | 38.8 | 2.42 | – | – | – | – | – | –
11 | – | Cc1ccc(-c2ccc(C)n2-c2ccc(-c3nc4ccc(F)cc4s3)cc2)cc1 | Non-toxic | 11.3 | 2.97 | 16.7 | 3.14 | 2.15 | 33.6 | 2.01 | – | – | – | – | – | –
12 | Active | COc1ccc2nc(-c3ccc(-n4c(C)ccc4-c4cc(OC)c(OC)c(OC)c4)cc3)sc2c1 | Non-toxic | 24.84 | 1.52 | 12.9 | 1.76 | 0.92 | 37.8 | 2.92 | 50 | Active | Active | Active | Active | Active
13 | – | Cc1ccc(-c2ccc([N+](=O)[O-])cc2)n1-c1ccc(-c2nc3ccc(F)cc3s2)cc1 | Non-toxic | 16.4 | 2.37 | 17 | 1.67 | 0.918 | 39 | 2.29 | – | – | – | – | – | –
14 | – | COc1cc2nc(-c3ccc(-n4c(C)ccc4-c4ccc(F)cc4)cc3)sc2c(OC)c1OC | Non-toxic | 14.83 | 2.91 | 13.1 | 3.94 | 2.67 | 43.2 | 3.29 | – | – | – | – | – | –
15 | – | COc1cc(-c2ccc(C)n2-c2ccc(-c3nc4ccc(F)cc4s3)cc2)cc(OC)c1OC | Non-toxic | 16.93 | 2.36 | 15.4 | 3 | 1.41 | 40 | 2.6 | – | – | – | – | – | –
16 | – | COc1ccc(-c2ccc(C)n2-c2ccc(-c3nc4ccc(OC)cc4s3)cc2)cc1 | Non-toxic | 6.36 | 4.83 | 12.7 | 4.12 | 3.09 | 30.6 | 2.23 | – | – | – | – | – | –
17 | – | Cc1ccc(-c2ccc(F)cc2)n1-c1ccc(-c2nc3ccc(F)cc3s2)cc1 | Non-toxic | 13.48 | 2.8 | 14.1 | 3.03 | 1.79 | 37.8 | 2.68 | – | – | – | – | – | –
18 | – | COc1cc2nc(-c3ccc(-n4c(C)ccc4-c4ccc(C)cc4)cc3)sc2c(OC)c1OC | Non-toxic | 13.66 | 3.11 | 12.3 | 4.14 | 2.91 | 42.5 | 3.45 | – | – | – | – | – | –
19 | – | COc1ccc(-c2ccc(C)n2-c2ccc(-c3nc4ccccc4s3)cc2)cc1 | Non-toxic | 11.13 | 3.25 | 14.8 | 3.99 | 2.78 | 36.3 | 2.44 | – | – | – | – | – | –
